Results as given in article PMC6255099, “Amides from Piper capense with CNS Activity – A Preliminary SAR Analysis” (Molecules, 2009).
Values joined by “and” are separate entries in the source; they are usually repeats but may differ in a detail not shown here. Equal values may be shown once. Read-outs that look alike come from different tables or passages of the source. Blank lines part the entries; values can stand above or below the compound they belong to.

Key:
[1] = system: benzodiazepine site on the GABAA receptor; assay: [3H]-flumazenil binding assay (GABA-benzodiazepine binding assay); set-up: species or system rat; details: for affinity for the benzodiazepine site (in words): [3H]-flumazenil binding assay; for Ki: as worded in text b6; for IC50: rat brain cortex, 0.5 nM [3H]-flumazenil, mean ± standard error, n.d. = not detected in tested concentrations below 10 mM
Protocol: (§1) The GABA binding assay was carried out according to a previously published method, with modifications. To a suspension of rat brain cortex (500 µL) was added test solution (25 µL) and [^3H]-flumazenil (25 µL, Ro 15-1788, Perkin-Elmer Life Science) to 0.5 nM final concentration in the assay. The suspension was mixed and incubated for 40 min on ice and poured directly onto glass fiber filters (Adventic, GC-50) under suction, in an ice-bath, followed by washing with ice-cold Tris-citrate buffer. The amount of radioactivity was determined by liquid scintillation counting. Non-specific binding was determined using diazepam (1 µM final concentration in the assay) and flumazenil was used as positive control. Specific binding was calculated as total binding minus non-specific binding. All experiments were done in triplicate. The serotonin re-uptake inhibition assay was performed according to previously described methods.

MES seizures in mice = system: MES seizures in mice; set-up: method as in doi:10.1016/S0165-7208(06)80055-3; details: cited from earlier work
GABAA receptor = system: GABAA receptor; set-up: method as in PMID 1332016; details: cited from earlier work
[2] = molecular target: serotonin re-uptake transport protein (Rattus norvegicus, UniProt P31652); assay: [3H]-citalopram binding assay (serotonin re-uptake inhibition assay)
serotonin re-uptake transport protein, sequence (P31652 whole entry): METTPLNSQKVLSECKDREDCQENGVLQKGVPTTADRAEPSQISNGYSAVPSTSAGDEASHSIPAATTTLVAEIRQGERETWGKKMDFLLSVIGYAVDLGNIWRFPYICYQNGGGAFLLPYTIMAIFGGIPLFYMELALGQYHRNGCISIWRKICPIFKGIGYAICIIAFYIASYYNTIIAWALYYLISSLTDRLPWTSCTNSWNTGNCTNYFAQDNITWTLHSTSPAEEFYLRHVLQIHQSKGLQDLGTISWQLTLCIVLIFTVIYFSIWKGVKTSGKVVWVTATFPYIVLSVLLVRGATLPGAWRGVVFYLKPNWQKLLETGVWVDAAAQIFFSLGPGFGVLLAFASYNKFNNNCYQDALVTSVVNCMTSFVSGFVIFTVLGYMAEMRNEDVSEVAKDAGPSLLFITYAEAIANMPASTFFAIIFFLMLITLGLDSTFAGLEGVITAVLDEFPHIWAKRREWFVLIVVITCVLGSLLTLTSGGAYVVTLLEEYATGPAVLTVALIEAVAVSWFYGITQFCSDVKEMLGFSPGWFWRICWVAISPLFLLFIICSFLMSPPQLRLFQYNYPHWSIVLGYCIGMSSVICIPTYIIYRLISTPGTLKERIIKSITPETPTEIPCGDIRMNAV
Protocol: as §1

[3] = mean ± standard error, n.d. = not detected in tested concentrations below 10 mM, read-out: [3H]-citalopram binding assay IC50
[4] = read-out: Ki, serotonin re-uptake transport protein

affinity for the benzodiazepine site (in words) [1]: lack of affinity
Compound: CC(C)NC(=O)CCc1ccc2c(c1)OCO2 [Compound 10, 3-Benzo[1,3]dioxol-5-yl-N-isopropyl-propionamide]
protection against MES induced seizures (MES seizures in mice): protection

Ki [1]: 1175 ± 3 µM | IC50 [1]: 1200 µM and 1180 µM
Compound: O=C(/C=C/C=C/c1ccc2c(c1)OCO2)N1CCCCC1 [Compound 1, Piperine]

Compound: COC1=CC(=O)O[C@@H](/C=C/c2ccc3c(c2)OCO3)C1 [methysticin, Methysticin]
association of GABAA receptor activation with the benzodiazepine binding site (GABAA receptor): not to be associated with the benzodiazepine binding site

IC50 [2, 3]: 585 ± 1520 µM
Compound: O=C(CCCCc1ccc2c(c1)OCO2)N1CCCCC1 [Compound 4, Tetrahydropiperidine]

Ki [1]: 1054 ± 4 µM | IC50 [1]: 1000 µM and 1050 µM | IC50 [2, 3]: 2980 ± 1630 µM | IC50 [2, 4]: 2980 ± 1630 µM
Compound: O=C(/C=C/CCc1ccc2c(c1)OCO2)N1CCCCC1 [Compound 2, 4,5-Dihydropiperine]

affinity for the benzodiazepine site (in words) [1]: lack of affinity
Compound: O=C(CCc1ccc2c(c1)OCO2)N1CCCCC1 [Compound 6, 3-Benzo[1,3]dioxol-5-yl-1-piperidin-1-yl-propan-1-one]
protection against MES induced seizures (MES seizures in mice): protection

IC50 [2, 3]: 2690 ± 1390 µM | IC50 [2, 4]: 2690 ± 1390 µM
Compound: O=C(/C=C/CCc1cc2c(cc1Cl)OCO2)N1CCCCC1 [Compound 8, trans-5-(6-Chlorobenzo[1,3]dioxol-5-yl)-1-(piperidin-1-yl)pent-2-en-1-one]

affinity for the benzodiazepine site (in words) [1]: no affinity
Compound: O=C(/C=C/c1ccc2c(c1)OCO2)N1CCCCC1 [Compound 5, Antiepilepsirine]
